pIC50: −log10 of the molar value. Where two headings read alike, the source gives them in different places. *1 amine or outer side, *2 acyl side, *3 side chain or, on linkers, in order; H or OH if unused. Where a SMILES comes first, the peptide text is derived from it. Bridges are numbered along the chain shown (N, C = ends). [ ]: non-standard residue; d: D form. The star is where a group is joined. dNMeaIle = CC[C@H](C)[C@@H](NC)C(=O)O; d(aIle) = CC[C@H](C)[C@@H](N)C(=O)O; NMeI = CC[C@H](C)[C@H](NC)C(=O)O; NMeβAla = CN(CCC(=O)[*:2])[*:1]; dNMeL = CN[C@H](CC(C)C)C(=O)O; dNMeV = CN[C@@H](C(=O)O)C(C)C; NMeV = CN[C@H](C(=O)O)C(C)C; Methoxyacetyl = COCC(=O)*; NMeA = CN[C@@H](C)C(=O)O; βAla = NCCC(=O)O
Columns and labels:
[1] = system: MCF-7 (human breast cancer cells); settings: 24 h
Procedure: (§1) Finally, the anti-austerity activity on two other different cancer cell lines was studied. Preferential cytotoxicity was assessed in a nutrient-deprived medium. Esumi et al. hypothesized that tolerance to nutrient deprivation as well as angiogenesis might be an important factor in tumor progression under hypovascular condition.
(§2) Briefly, MIA PaCa-2, HepG2 and MCF-7 Cells (2 × 10^4 cells/well) were seeded in 96-well plates and incubated in fresh DMEM. The cells were washed with Dulbecco’s phosphate-buffered saline (PBS) before the medium was replaced with DMEM or NDM containing serial dilutions of the test samples. After 24 h of incubation, the cells were washed with PBS, and 100 μL of DMEM containing 10% WST-8 cell counting kit solution was added to each well. After 3 h of incubation, the absorbance was measured at 450 nm. Cell viability was calculated from the mean values for three wells. The preferential cytotoxicity was expressed as the concentration at which 50% of cells died preferentially in NDM (PC50).

[2] = system: HepG2 (human liver cancer cells); settings: 24 h
Procedure: as §1, §2

[3] = system: human pancreatic cancer cell line MIA PaCa-2; settings: 24 h
Procedure: Data are presented as preferential cytotoxicity (PC50) values, which represent the concentration that kills 50% of cancer cells in a nutrient-deprived medium (NDM) without any toxicity in a nutrient-rich medium DMEM (Dulbecco’s Modified Eagle Medium).
as §2
Pancreatic cancer cells (MIA PaCa-2 cells) were kindly provided by Dr. Suresh Awale, an Associate Professor at Institute of Natural Medicine, University Toyama, Toyama, Japan. MIA PaCa-2 (RBRC-RCB2094), human pancreatic cancer cell lines were purchased from Riken BRC cell bank.

[4] = system: Bacillus cereus NBRC 15305
Procedure: (§3) Previously, three theonellapeptolide members capped with a unique acyl group at their N-termini such as methylsulfinylacetyl, methylsulfanylacetyl, and acetyl were isolated by Tsuda et al. from Okinawan marine sponge Theonella sp.. Furthermore, the antibacterial activity of these variants was evaluated against four bacterial and six fungal strains. […] To the best of our knowledge, there is no report on the antibacterial activity of theonellapeptolides with methoxyacetyl group. This encouraged us to investigate the antibacterial activity of 1–6 against the Gram-negative bacterium Escherichia coli JW5503 and the Gram-positive bacteria Bacillus cereus NBRC 15305 and Kocuria rhizophila NBRC 12708.
(§4) After incubation for 22 h (30 °C), the obtained optical density was recorded using Tecan infinite® M200 plate reader at 600 nm to determine percent growth inhibition.

[5] = system: Escherichia coli JW5503
Procedure: as §3, §4

[6] = system: Kocuria rhizophila NBRC 12708
Procedure: as §3, §4

[7] = read-out: IC50 in DMEM, MCF7, nutrient-rich DMEM, WST-8, absorbance 450 nm, mean of three wells
[8] = read-out: PC50 in NDM, MCF7, preferential cytotoxicity, nutrient-deprived medium (NDM), WST-8, mean of three wells
[9] = read-out: IC50 in DMEM, HepG2, nutrient-rich DMEM, WST-8, absorbance 450 nm, mean of three wells
[10] = read-out: PC50 in NDM, HepG2, preferential cytotoxicity, nutrient-deprived medium (NDM), WST-8, mean of three wells
[11] = read-out: IC50 in DMEM, MIA PaCa-2, nutrient-rich DMEM, WST-8, absorbance 450 nm, mean of three wells
[12] = read-out: PC50 in NDM, MIA PaCa-2, preferential cytotoxicity, nutrient-deprived medium (NDM), WST-8, mean of three wells
[13] = Escherichia coli JW5503, 96-well microbroth dilution (CLSI), triplicate, 22 h, 30 °C, OD 600 nm
[14] = Bacillus cereus NBRC 15305, 96-well microbroth dilution (CLSI), triplicate, 22 h, 30 °C, OD 600 nm
[15] = Kocuria rhizophila NBRC 12708, 96-well microbroth dilution (CLSI), triplicate, 22 h, 30 °C, OD 600 nm

CC[C@H](C)[C@H]1NC(=O)CCNC(=O)[C@@H](C(C)C)N(C)C(=O)[C@@H](CC(C)C)NC(=O)CCNC(=O)[C@@H](NC(=O)[C@@H](CC(C)C)N(C)C(=O)[C@@H](NC(=O)COC)C(C)C)[C@@H](C)OC(=O)[C@@H]([C@@H](C)CC)N(C)C(=O)[C@@H](CC(C)C)NC(=O)CCNC(=O)[C@H](C)NC(=O)[C@H](C(C)C)N(C)C1=O [Compound 1, theonellapeptolide IIb] (Methoxyacetyl-V[dNMeL]T[βAla][dL][dNMeV][βAla][d(aIle)][NMeV]A[βAla][dL][dNMeaIle]; ester 3-C)
pIC50 [1, 7]: < 4.00 | pIC50 [1, 8]: < 4.00 | pIC50 [2, 9]: < 4.00 | pIC50 [2, 10]: < 4.00 | pIC50 [3, 11]: < 4.00 | pIC50 [3, 12]: 4.37 | MIC, BC ([4]; NBRC 15305, 22 h): > 66 µM | MIC, EC [5, 13]: > 66 µM | MIC, KR ([6]; NBRC 12708, 22 h): > 66 µM

CC[C@H](C)[C@H]1NC(=O)CCNC(=O)[C@@H](C(C)C)NC(=O)[C@@H](CC(C)C)NC(=O)CCNC(=O)[C@@H](NC(=O)[C@@H](CC(C)C)N(C)C(=O)[C@@H](NC(=O)COC)C(C)C)[C@@H](C)OC(=O)[C@@H]([C@@H](C)CC)N(C)C(=O)[C@@H](CC(C)C)NC(=O)CCNC(=O)[C@H](C)NC(=O)[C@H](C(C)C)N(C)C1=O [Compound 2, theonellapeptolide IIa] (Methoxyacetyl-V[dNMeL]T[βAla][dL][dV][βAla][d(aIle)][NMeV]A[βAla][dL][dNMeaIle]; ester 3-C)
pIC50 [1, 7]: < 4.00 | pIC50 [1, 8]: < 4.00 | pIC50 [2, 9]: < 4.00 | pIC50 [2, 10]: < 4.00 | pIC50 [3, 11]: < 4.00 | pIC50 [3, 12]: 4.48 | MIC, BC [4, 14]: > 66 µM | MIC, EC [5, 13]: > 66 µM | MIC, KR [6, 15]: > 66 µM

CC[C@H](C)[C@H]1NC(=O)CCNC(=O)[C@H](C(C)C)N(C)C(=O)[C@@H](CC(C)C)NC(=O)CCN(C)C(=O)[C@@H](NC(=O)[C@@H](CC(C)C)N(C)C(=O)[C@@H](NC(=O)COC)C(C)C)[C@@H](C)OC(=O)[C@@H]([C@@H](C)CC)N(C)C(=O)[C@@H](CC(C)C)NC(=O)CCNC(=O)[C@H](C)NC(=O)[C@H](C(C)C)N(C)C1=O [Compound 3, theonellapeptolide IIc] (Methoxyacetyl-V[dNMeL]T[NMeβAla][dL][NMeV][βAla][d(aIle)][NMeV]A[βAla][dL][dNMeaIle]; ester 3-C)
pIC50 [1, 7]: < 4.00 | pIC50 [1, 8]: < 4.00 | pIC50 [2, 9]: < 4.00 | pIC50 [2, 10]: < 4.00 | pIC50 [3, 11]: 4.14 | pIC50 [3, 12]: 5.00 | MIC, BC [4, 14]: > 66 µM | MIC, EC [5, 13]: > 66 µM | MIC, KR [6, 15]: > 66 µM

CC[C@H](C)[C@H]1C(=O)NCCC(=O)N[C@H]([C@@H](C)CC)C(=O)N(C)[C@@H](C(C)C)C(=O)N[C@@H](C)C(=O)NCCC(=O)N[C@H](CC(C)C)C(=O)N(C)[C@H]([C@@H](C)CC)C(=O)O[C@H](C)[C@H](NC(=O)[C@@H](CC(C)C)N(C)C(=O)[C@@H](NC(=O)COC)C(C)C)C(=O)N(C)CCC(=O)N[C@H](CC(C)C)C(=O)N1C [Compound 5, theonellapeptolide IIe] (Methoxyacetyl-V[dNMeL]T[NMeβAla][dL][NMeI][βAla][d(aIle)][NMeV]A[βAla][dL][dNMeaIle]; ester 3-C)
pIC50 [1, 7]: < 4.00 | pIC50 [1, 8]: < 4.00 | pIC50 [2, 9]: < 4.00 | pIC50 [2, 10]: < 4.00 | pIC50 [3, 11]: 4.39 | pIC50 [3, 12]: 5.46 | MIC, BC ([4]; NBRC 15305, 22 h): > 66 µM | MIC, EC ([5]; JW5503, 22 h): > 66 µM | MIC, KR ([6]; NBRC 12708, 22 h): > 66 µM

CC[C@H](C)[C@H]1C(=O)NCCC(=O)N[C@H]([C@@H](C)CC)C(=O)N(C)[C@@H](C(C)C)C(=O)N(C)[C@@H](C)C(=O)NCCC(=O)N[C@H](CC(C)C)C(=O)N(C)[C@H]([C@@H](C)CC)C(=O)O[C@H](C)[C@H](NC(=O)[C@@H](CC(C)C)N(C)C(=O)[C@@H](NC(=O)COC)C(C)C)C(=O)NCCC(=O)N[C@H](CC(C)C)C(=O)N1C [Compound 6, theonellapeptolide Id] (Methoxyacetyl-V[dNMeL]T[βAla][dL][NMeI][βAla][d(aIle)][NMeV][NMeA][βAla][dL][dNMeaIle]; ester 3-C)
pIC50 [1, 7]: < 4.00 | pIC50 [1, 8]: < 4.00 | pIC50 [2, 9]: < 4.00 | pIC50 [2, 10]: < 4.00 | pIC50 [3, 11]: 4.37 | pIC50 [3, 12]: 5.09 | MIC, BC ([4]; NBRC 15305, 22 h): > 66 µM | MIC, EC ([5]; JW5503, 22 h): > 66 µM | MIC, KR ([6]; NBRC 12708, 22 h): > 66 µM
